molecular target: hNav1.7 (Homo sapiens (Human), UniProt Q15858); experiment: Tritiated aryl sulfonamide binding to membranes from cells expressing hNav1.7 and the β1 subunit (competitive binding); settings: membranes with hNav1.7 and β1 subunit; [3H]compound displacement, 18 h, room temperature; read-out: NaV1.7 395 Memb Binding (IC50)
Description: Tritiated Aryl Sulfonamide Binding to Membranes Isolated from Cells that Heterologously Express hNav1.7 and the β1 Subunit
Preparation of membranes containing recombinantly expressed sodium channels: Frozen recombinant cell pellets were thawed on ice and diluted to 4 times the cell pellet weight with ice cold 50 mM Tris HCl, pH 7.4 buffer. The cell suspensions were homogenized on ice using a motorized glass dounce homogeniser. Homogenates were further diluted 8.4 times with ice cold 50 mM Tris HCl, pH 7.4 buffer and then centrifuged at 200×g at 4° C. for 15 min. The supernatants were collected and centrifuged at 10000×g at 4° C. for 50 min. The pellets were then re-suspended in 100 mM NaCl, 20 mM Tris HCl, pH 7.4 buffer containing 1% v/v protease inhibitors (Calbiochem) and re-homogenized on ice. The homogenized membranes were then processed through a syringe equipped with a 26 gauge needle. Protein concentrations were determined by Bradford Assay and the membranes were stored at −80° C.
Radioligand Binding Studies: Saturation experiments. A representative compound of formula (I) was tritiated. Three tritiums were incorporated in place of methyl hydrogens to generate [^3H]compound. Binding of this radioligand was preformed in 5 mL borosilicate glass test tubes at room temperature. Binding was initiated by adding membranes to increasing concentrations of [^3H]compound in 100 mM NaCl, 20 mM Tris HCl, pH 7.4 buffer containing 0.01% w/v bovine serum albumin (BSA) for 18 h. Non-specific binding was determined in the presence of 1 μM unlabelled compound. After 18 h, the reactants were filtered through GF/C glass fiber filters presoaked in 0.5% w/v polyethylene imine. […] [^3H]compound bound to filters was quantified by liquid scintillation counting.
Competitive binding experiments. Binding reactions were preformed in 96-well polypropylene plates at room temperature for 18 h. In 360 μL, membranes were incubated with 100 μM [^3H]compound and increasing concentrations of Test Compound. Non-specific binding was defined in the presence of 1 μM unlabelled compound. Reactions were transferred and filtered through 96-well glass fiber/C filter plates presoaked with 0.5% polyethylene imine. The filtered reactions were washed 5 times with 200 L ice cold buffer containing 0.25% BSA. Bound radioactivity was determined by liquid scintillation counting.
Data Analysis: For saturation experiments, non-specific binding was subtracted from total binding to provide specific binding and these values were recalculated in terms of pmol ligand bound per mg protein. Saturation curves were constructed and dissociation constants were calculated using the single site ligand binding model: Beq=(Bmax*X)/(X+Kd), where Beq is the amount of ligand bound at equilibrium, Bmax is the maximum receptor density, Kd is the dissociation constant for the ligand, and X is the free ligand concentration.

hNav1.7, sequence (Q15858 whole entry, looked up): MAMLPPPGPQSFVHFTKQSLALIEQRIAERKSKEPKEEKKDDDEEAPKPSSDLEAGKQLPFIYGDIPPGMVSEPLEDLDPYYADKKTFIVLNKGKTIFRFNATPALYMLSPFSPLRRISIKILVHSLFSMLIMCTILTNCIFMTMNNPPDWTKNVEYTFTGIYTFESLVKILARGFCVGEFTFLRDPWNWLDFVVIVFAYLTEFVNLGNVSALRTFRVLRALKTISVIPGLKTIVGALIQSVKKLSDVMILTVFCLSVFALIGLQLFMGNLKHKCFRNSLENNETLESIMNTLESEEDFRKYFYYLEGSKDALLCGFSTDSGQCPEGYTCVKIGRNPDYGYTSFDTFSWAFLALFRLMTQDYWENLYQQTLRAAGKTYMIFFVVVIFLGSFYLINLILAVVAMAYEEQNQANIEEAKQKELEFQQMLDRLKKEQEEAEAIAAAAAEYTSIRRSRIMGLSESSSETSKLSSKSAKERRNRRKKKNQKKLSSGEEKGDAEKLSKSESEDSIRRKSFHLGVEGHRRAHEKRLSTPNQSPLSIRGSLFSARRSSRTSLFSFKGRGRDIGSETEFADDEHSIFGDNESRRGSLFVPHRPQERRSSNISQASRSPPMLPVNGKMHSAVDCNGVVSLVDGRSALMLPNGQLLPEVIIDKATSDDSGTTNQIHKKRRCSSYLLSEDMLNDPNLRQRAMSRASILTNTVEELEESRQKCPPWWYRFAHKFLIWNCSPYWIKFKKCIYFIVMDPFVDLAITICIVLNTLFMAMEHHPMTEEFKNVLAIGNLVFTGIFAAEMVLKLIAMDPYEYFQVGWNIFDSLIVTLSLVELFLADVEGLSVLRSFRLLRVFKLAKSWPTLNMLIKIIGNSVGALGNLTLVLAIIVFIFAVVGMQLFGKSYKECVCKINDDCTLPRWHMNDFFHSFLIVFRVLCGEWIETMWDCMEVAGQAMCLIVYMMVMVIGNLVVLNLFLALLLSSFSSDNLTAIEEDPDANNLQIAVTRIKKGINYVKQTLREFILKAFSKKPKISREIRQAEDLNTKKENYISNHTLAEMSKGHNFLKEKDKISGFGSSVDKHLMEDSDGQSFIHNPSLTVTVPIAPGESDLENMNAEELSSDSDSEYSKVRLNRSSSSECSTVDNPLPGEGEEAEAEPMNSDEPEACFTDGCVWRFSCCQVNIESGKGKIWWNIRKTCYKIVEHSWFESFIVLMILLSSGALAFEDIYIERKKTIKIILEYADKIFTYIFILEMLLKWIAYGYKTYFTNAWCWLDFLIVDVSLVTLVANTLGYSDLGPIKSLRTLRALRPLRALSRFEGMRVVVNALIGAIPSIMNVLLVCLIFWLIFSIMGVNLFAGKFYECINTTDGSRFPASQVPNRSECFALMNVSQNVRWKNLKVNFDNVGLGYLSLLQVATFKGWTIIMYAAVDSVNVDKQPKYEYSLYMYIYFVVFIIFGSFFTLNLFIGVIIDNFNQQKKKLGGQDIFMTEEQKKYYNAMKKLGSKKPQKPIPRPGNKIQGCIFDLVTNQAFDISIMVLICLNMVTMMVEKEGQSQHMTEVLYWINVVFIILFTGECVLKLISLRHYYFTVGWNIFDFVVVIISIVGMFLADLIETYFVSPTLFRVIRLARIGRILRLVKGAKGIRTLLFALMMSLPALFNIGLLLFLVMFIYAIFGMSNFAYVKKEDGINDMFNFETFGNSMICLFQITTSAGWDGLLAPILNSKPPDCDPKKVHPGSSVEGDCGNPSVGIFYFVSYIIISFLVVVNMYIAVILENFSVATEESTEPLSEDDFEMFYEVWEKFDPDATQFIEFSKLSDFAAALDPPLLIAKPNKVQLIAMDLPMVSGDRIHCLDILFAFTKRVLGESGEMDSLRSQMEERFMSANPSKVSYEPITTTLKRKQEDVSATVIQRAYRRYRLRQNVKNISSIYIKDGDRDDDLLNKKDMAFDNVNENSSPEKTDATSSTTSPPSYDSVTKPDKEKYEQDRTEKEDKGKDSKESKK
hNav1.7, sequence (Q07699 whole entry partner, looked up): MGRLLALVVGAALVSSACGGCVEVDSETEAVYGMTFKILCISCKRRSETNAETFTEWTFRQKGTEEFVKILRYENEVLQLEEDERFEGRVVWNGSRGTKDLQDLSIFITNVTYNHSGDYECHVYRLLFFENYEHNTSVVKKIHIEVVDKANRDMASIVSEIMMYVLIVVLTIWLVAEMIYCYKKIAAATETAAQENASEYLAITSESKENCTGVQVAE

| Structure (SMILES) | IC50 |
| --- | --- |
| COC12CC3CC(CC(COc4cc(F)c(C(=O)NS(C)(=O)=O)cc4C4CC4)(C3)C1)C2 | 12 nM |
| CS(=O)(=O)NC(=O)c1cc(Cl)c(OCC23CC4CC(CC(F)(C4)C2)C3)cc1F | 120 nM |
| CS(=O)(=O)NC(=O)c1ccc(OCC23CC4CC(CC(F)(C4)C2)C3)cc1F | 1640 nM |
| CCS(=O)(=O)NC(=O)c1cc(C2CC2)c(OCC23CC4CC(CC(C4)C2)C3)cc1F | 1 nM |
| CC(C)(C)S(=O)(=O)NC(=O)c1cc(C2CC2)c(OCC23CC4CC(CC(C4)C2)C3)cc1F | 3 nM |
| CS(=O)(=O)NC(=O)c1ccc(OCC2CCC3(CC2)CC3)cc1F | 152 nM |
| COCCNS(=O)(=O)NC(=O)c1cc(C2CC2)c(OCC23CC4CC(CC(C4)C2)C3)cc1F | 12 nM |
| CS(=O)(=O)NC(=O)c1cc(Cl)c(O[C@H]2C3CC4CC2C[C@](F)(C4)C3)cc1F | 120 nM |
| O=C(NS(=O)(=O)N1CCC1)c1cc(C2(O)COC2)c(OCC23CC4CC(CC(C4)C2)C3)cc1F | 70 nM |
| CNS(=O)(=O)NC(=O)c1ccc(C2C3CC4CC(C3)CC2C4)c(Cl)c1 (stereo not shown) | 1700 nM |
| CS(=O)(=O)NC(=O)c1cc(C2CC2)c(OCC2(F)C3CC4CC(C3)CC2C4)cc1F (stereo not shown) | 4 nM |
| CS(=O)(=O)NC(=O)c1cnc(OCC23CC4(F)CC(F)(CC(F)(C4)C2)C3)c(Cl)c1 | 21500 nM |
| COCCS(=O)(=O)NC(=O)c1cc(Cl)c(OCC2(C#N)C3CC4CC(C3)CC2C4)cc1F (stereo not shown) | 990 nM |
| CNS(=O)(=O)NC(=O)c1cc(Cl)c(OCC2(C#N)C3CC4CC(C3)CC2C4)cc1F (stereo not shown) | 880 nM |
| CS(=O)(=O)NC(=O)c1cc(Cl)c(OCC2(C#N)C3CC4CC(C3)CC2C4)cc1F (stereo not shown) | 310 nM |
| COCCS(=O)(=O)NC(=O)c1cc(C2CC2)c(OCC2C3CC4CC(C3)CC2C4)cc1F (stereo not shown) | 5 nM |
| CS(=O)(=O)NC(=O)c1cc(I)c(OCC23CC4CC(CC(C4)C2)C3)cc1F | 8 nM |
| CCOCCS(=O)(=O)NC(=O)c1cc(C2CC2)c(OCC23CC4CC(CC(C4)C2)C3)cc1F | 12 nM |
| COCCCS(=O)(=O)NC(=O)c1cc(C2CC2)c(OCC23CC4CC(CC(C4)C2)C3)cc1F | 22 nM |
| CC(C)OCCS(=O)(=O)NC(=O)c1cc(C2CC2)c(OCC23CC4CC(CC(C4)C2)C3)cc1F | 40 nM |
| CS(=O)(=O)NC(=O)c1cc(Cl)c(OCC23CC4CC(CC(C4)C2)C3)c(Cl)c1 | 540 nM |
| CS(=O)(=O)NC(=O)c1cc(C2CC2)c(OCC2(C#N)C3CC4CC(C3)CC2C4)cc1F (stereo not shown) | 22 nM |
| CNS(=O)(=O)NC(=O)c1cc(C2CC2)c(OCC2(C#N)C3CC4CC(C3)CC2C4)cc1F (stereo not shown) | 43 nM |
| COCCS(=O)(=O)NC(=O)c1cc(C2CC2)c(OCC2(C(F)(F)F)CCCCC2)cc1F | 30 nM |

Other lines, results leading:

| IC50 | Structure (SMILES) |
| --- | --- |
| 3 nM | CS(=O)(=O)NC(=O)c1cc(C2CC2)c(OCC23CC4CC(CC(F)(C4)C2)C3)cc1F |
| 2 nM | CS(=O)(=O)NC(=O)c1cc(C2CC2)c(OCC2CCC3(CC2)CC3)cc1F |
| 10 nM | Cc1cc(C(=O)NS(=O)(=O)N2CCC2)c(F)cc1OCC12CC3CC(CC(C3)C1)C2 |
| 12 nM | CNS(=O)(=O)NC(=O)c1cc(C2CC2)c(OCC2CCCCC2)cc1F |
| 3.1 nM | CS(=O)(=O)NC(=O)c1cc(C2CC2)c(OCC2C3CC4CC(C3)CC2C4)cc1F (stereo not shown) |
| 66 nM | O=C(NS(=O)(=O)CCO)c1cc(C2CC2)c(OCC2CCCCC2)cc1F |
| 12 nM | N#CC1CN(S(=O)(=O)NC(=O)c2cc(C3CC3)c(OCC34CC5CC(CC(C5)C3)C4)cc2F)C1 |
| 160 nM | O=C(NS(=O)(=O)N1CC[C@H](O)C1)c1cc(C2CC2)c(OCC2CCCCC2)cc1F |
| 12 nM | CC(O)c1cc(C(=O)NS(=O)(=O)N2CCC2)c(F)cc1OCC12CC3CC(CC(C3)C1)C2 (stereo not shown) |
| 16 nM | O=C(NS(=O)(=O)N1CCOCC1)c1cc(C2CC2)c(O[C@H]2C3CC4CC2C[C@](Cl)(C4)C3)cc1F |
| 60 nM | CC(=O)c1cc(C(=O)NS(=O)(=O)N2CCC2)c(F)cc1OCC12CC3CC(CC(C3)C1)C2 |
| 630 nM | O=C(NS(=O)(=O)N1CCC2(CC1)COC2)c1cc(C2CC2)c(OCC23CC4CC(CC(C4)C2)C3)cc1F |
| 36 nM | O=C(NS(=O)(=O)N1CCC1)c1cc(C2CC2)c(OCC2CCCC2)cc1F |

Source: patent US8952169B2 (Genentech, Inc., priority 2012, dated 2015)
